How the values were obtained:
Assay in all cases: relative viability (nuclei count vs DMSO), 5 days (fraction); higher = more cells survive
SW 1573 = test system: SW 1573
In short: (§1)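 Relative viability is defined as nuclei in treated wells over nuclei in vehicle wells. Duplicate plates were run and medians reported. Lung cancer cell lines in 1536-well plates were dosed by pin tool one day after seeding, with one drug or with a fixed anchor-drug dose plus five library-drug doses (not always all listed) in √10 steps, and nuclei were counted after 5 days.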

NCI-H2342 = test system: NCI-H2342
In short: as §1

NCI-H647 = test system: NCI-H647
In short: as §1

NCI-H522 = test system: NCI-H522
In short: as §1

HCC-78 = test system: HCC-78
In short: as §1

HOP-62 = test system: HOP-62
In short: as §1

NCI-H358 = test system: NCI-H358
In short: as §1

NCI-H2347 = test system: NCI-H2347
In short: as §1

NCI-H2126 = test system: NCI-H2126
In short: as §1

HCC-15 = test system: HCC-15
In short: as §1

PC-3 [JPC-3] = test system: PC-3 [JPC-3]
In short: as §1

NCI-H1915 = test system: NCI-H1915
In short: as §1

LC-2-ad = test system: LC-2-ad
In short: as §1

RERF-LC-KJ = test system: RERF-LC-KJ
In short: as §1

A-427 = test system: A-427
In short: as §1

LXF-289 = test system: LXF-289
In short: as §1

NCI-H1755 = test system: NCI-H1755
In short: as §1

NCI-H1734 = test system: NCI-H1734
In short: as §1

NCI-H1975 = test system: NCI-H1975
In short: as §1

NCI-H2228 = test system: NCI-H2228
In short: as §1

SK-LU-1 = test system: SK-LU-1
In short: as §1

**Q.** Which relative viability (SW 1573; first compound 0.005 µM) does the source give for `Nc1ccn([C@@H]2O[C@H](CO)[C@@H](O)[C@@H]2O)c(=O)n1` [Cytarabine] + O=C(CCCCCCC(=O)Nc1ccccc1)NO [Vorinostat] (partner 1 µM) here?
**A.** 0.606

**Q.** And the relative viability (SW 1573; first compound 0.01581 µM)?
**A.** 0.552

**Q.** What about the relative viability (SW 1573; first compound 0.05 µM) of the same compound?
**A.** 0.677

**Q.** And the relative viability (SW 1573; first compound 0.1581 µM)?
**A.** 0.225

**Q.** What about the relative viability (SW 1573; first compound 0.5 µM) of the same compound?
**A.** 0.15

**Q.** What about the relative viability (NCI-H2342; first compound 0.005 µM) of the same compound?
**A.** 0.718

**Q.** What about the relative viability (NCI-H2342; first compound 0.01581 µM) of the same compound?
**A.** 0.698

**Q.** What about the relative viability (NCI-H2342; first compound 0.05 µM) of the same compound?
**A.** 0.657

**Q.** What about the relative viability (NCI-H2342; first compound 0.1581 µM) of the same compound?
**A.** 0.52

**Q.** And the relative viability (NCI-H2342; first compound 0.5 µM)?
**A.** 0.465

**Q.** And the relative viability (NCI-H647; first compound 0.005 µM)?
**A.** 0.284

**Q.** What about the relative viability (NCI-H647; first compound 0.01581 µM) of the same compound?
**A.** 0.294

**Q.** And the relative viability (NCI-H647; first compound 0.05 µM)?
**A.** 0.149

**Q.** And the relative viability (NCI-H647; first compound 0.1581 µM)?
**A.** 0.0878

**Q.** What about the relative viability (NCI-H647; first compound 0.5 µM) of the same compound?
**A.** 0.0778

**Q.** What about the relative viability (NCI-H522; first compound 0.005 µM) of the same compound?
**A.** 0.993

**Q.** What about the relative viability (NCI-H522; first compound 0.01581 µM) of the same compound?
**A.** 0.837

**Q.** What about the relative viability (NCI-H522; first compound 0.05 µM) of the same compound?
**A.** 0.694

**Q.** What about the relative viability (NCI-H522; first compound 0.1581 µM) of the same compound?
**A.** 0.615

**Q.** What about the relative viability (NCI-H522; first compound 0.5 µM) of the same compound?
**A.** 0.563

**Q.** And the relative viability (HCC-78; first compound 0.005 µM)?
**A.** 0.498

**Q.** What about the relative viability (HCC-78; first compound 0.01581 µM) of the same compound?
**A.** 0.471

**Q.** What about the relative viability (HCC-78; first compound 0.05 µM) of the same compound?
**A.** 0.402

**Q.** And the relative viability (HCC-78; first compound 0.1581 µM)?
**A.** 0.348

**Q.** What about the relative viability (HCC-78; first compound 0.5 µM) of the same compound?
**A.** 0.263

**Q.** What about the relative viability (HOP-62; first compound 0.005 µM) of the same compound?
**A.** 0.633

**Q.** What about the relative viability (HOP-62; first compound 0.01581 µM) of the same compound?
**A.** 0.406

**Q.** What about the relative viability (HOP-62; first compound 0.05 µM) of the same compound?
**A.** 0.437

**Q.** And the relative viability (HOP-62; first compound 0.1581 µM)?
**A.** 0.115

**Q.** And the relative viability (HOP-62; first compound 0.5 µM)?
**A.** 0.0936

**Q.** And the relative viability (NCI-H358; first compound 0.005 µM)?
**A.** 0.632

**Q.** What about the relative viability (NCI-H358; first compound 0.01581 µM) of the same compound?
**A.** 0.557

**Q.** And the relative viability (NCI-H358; first compound 0.05 µM)?
**A.** 0.538

**Q.** What about the relative viability (NCI-H358; first compound 0.1581 µM) of the same compound?
**A.** 0.178

**Q.** What about the relative viability (NCI-H358; first compound 0.5 µM) of the same compound?
**A.** 0.113

**Q.** And the relative viability (NCI-H2347; first compound 0.005 µM)?
**A.** 0.531

**Q.** And the relative viability (NCI-H2347; first compound 0.01581 µM)?
**A.** 0.586

**Q.** And the relative viability (NCI-H2347; first compound 0.05 µM)?
**A.** 0.555

**Q.** And the relative viability (NCI-H2347; first compound 0.1581 µM)?
**A.** 0.498

**Q.** What about the relative viability (NCI-H2347; first compound 0.5 µM) of the same compound?
**A.** 0.409

**Q.** What about the relative viability (NCI-H2126; first compound 0.005 µM) of the same compound?
**A.** 0.649

**Q.** And the relative viability (NCI-H2126; first compound 0.01581 µM)?
**A.** 0.681

**Q.** What about the relative viability (NCI-H2126; first compound 0.05 µM) of the same compound?
**A.** 0.448

**Q.** And the relative viability (NCI-H2126; first compound 0.1581 µM)?
**A.** 0.593

**Q.** What about the relative viability (NCI-H2126; first compound 0.5 µM) of the same compound?
**A.** 0.44

**Q.** What about the relative viability (HCC-15; first compound 0.005 µM) of the same compound?
**A.** 0.856

**Q.** What about the relative viability (HCC-15; first compound 0.01581 µM) of the same compound?
**A.** 0.784

**Q.** What about the relative viability (HCC-15; first compound 0.05 µM) of the same compound?
**A.** 0.775

**Q.** What about the relative viability (HCC-15; first compound 0.1581 µM) of the same compound?
**A.** 0.676

**Q.** What about the relative viability (HCC-15; first compound 0.5 µM) of the same compound?
**A.** 0.647

**Q.** What about the relative viability (PC-3 [JPC-3]; first compound 0.005 µM) of the same compound?
**A.** 0.78

**Q.** And the relative viability (PC-3 [JPC-3]; first compound 0.01581 µM)?
**A.** 0.775

**Q.** What about the relative viability (PC-3 [JPC-3]; first compound 0.05 µM) of the same compound?
**A.** 0.546

**Q.** And the relative viability (PC-3 [JPC-3]; first compound 0.1581 µM)?
**A.** 0.466

**Q.** What about the relative viability (PC-3 [JPC-3]; first compound 0.5 µM) of the same compound?
**A.** 0.592

**Q.** What about the relative viability (NCI-H1915; first compound 0.005 µM) of the same compound?
**A.** 0.477

**Q.** And the relative viability (NCI-H1915; first compound 0.01581 µM)?
**A.** 0.424

**Q.** And the relative viability (NCI-H1915; first compound 0.05 µM)?
**A.** 0.375

**Q.** What about the relative viability (NCI-H1915; first compound 0.1581 µM) of the same compound?
**A.** 0.318

**Q.** What about the relative viability (NCI-H1915; first compound 0.5 µM) of the same compound?
**A.** 0.235

**Q.** And the relative viability (LC-2-ad; first compound 0.005 µM)?
**A.** 0.766

**Q.** And the relative viability (LC-2-ad; first compound 0.01581 µM)?
**A.** 0.691

**Q.** What about the relative viability (LC-2-ad; first compound 0.05 µM) of the same compound?
**A.** 0.67

**Q.** And the relative viability (LC-2-ad; first compound 0.1581 µM)?
**A.** 0.646

**Q.** What about the relative viability (LC-2-ad; first compound 0.5 µM) of the same compound?
**A.** 0.436

**Q.** And the relative viability (RERF-LC-KJ; first compound 0.005 µM)?
**A.** 0.569

**Q.** What about the relative viability (RERF-LC-KJ; first compound 0.01581 µM) of the same compound?
**A.** 0.66

**Q.** What about the relative viability (RERF-LC-KJ; first compound 0.05 µM) of the same compound?
**A.** 0.513

**Q.** And the relative viability (RERF-LC-KJ; first compound 0.1581 µM)?
**A.** 0.474

**Q.** And the relative viability (RERF-LC-KJ; first compound 0.5 µM)?
**A.** 0.393

**Q.** What about the relative viability (A-427; first compound 0.005 µM) of the same compound?
**A.** 0.758

**Q.** And the relative viability (A-427; first compound 0.01581 µM)?
**A.** 0.636

**Q.** And the relative viability (A-427; first compound 0.05 µM)?
**A.** 0.325

**Q.** And the relative viability (A-427; first compound 0.1581 µM)?
**A.** 0.339

**Q.** What about the relative viability (A-427; first compound 0.5 µM) of the same compound?
**A.** 0.306

**Q.** What about the relative viability (LXF-289; first compound 0.005 µM) of the same compound?
**A.** 0.736

**Q.** And the relative viability (LXF-289; first compound 0.01581 µM)?
**A.** 0.856

**Q.** And the relative viability (LXF-289; first compound 0.05 µM)?
**A.** 0.639

**Q.** What about the relative viability (LXF-289; first compound 0.1581 µM) of the same compound?
**A.** 0.464

**Q.** And the relative viability (LXF-289; first compound 0.5 µM)?
**A.** 0.27

**Q.** And the relative viability (NCI-H1755; first compound 0.005 µM)?
**A.** 0.823

**Q.** And the relative viability (NCI-H1755; first compound 0.01581 µM)?
**A.** 0.794

**Q.** What about the relative viability (NCI-H1755; first compound 0.05 µM) of the same compound?
**A.** 0.685

**Q.** What about the relative viability (NCI-H1755; first compound 0.1581 µM) of the same compound?
**A.** 0.502

**Q.** What about the relative viability (NCI-H1755; first compound 0.5 µM) of the same compound?
**A.** 0.375

**Q.** And the relative viability (NCI-H1734; first compound 0.005 µM)?
**A.** 0.493

**Q.** What about the relative viability (NCI-H1734; first compound 0.01581 µM) of the same compound?
**A.** 0.361

**Q.** And the relative viability (NCI-H1734; first compound 0.05 µM)?
**A.** 0.317

**Q.** And the relative viability (NCI-H1734; first compound 0.1581 µM)?
**A.** 0.138

**Q.** What about the relative viability (NCI-H1734; first compound 0.5 µM) of the same compound?
**A.** 0.125

**Q.** What about the relative viability (NCI-H1975; first compound 0.005 µM) of the same compound?
**A.** 0.572

**Q.** And the relative viability (NCI-H1975; first compound 0.01581 µM)?
**A.** 0.675

**Q.** What about the relative viability (NCI-H1975; first compound 0.05 µM) of the same compound?
**A.** 0.568

**Q.** And the relative viability (NCI-H1975; first compound 0.1581 µM)?
**A.** 0.429

**Q.** What about the relative viability (NCI-H1975; first compound 0.5 µM) of the same compound?
**A.** 0.287

**Q.** What about the relative viability (NCI-H2228; first compound 0.005 µM) of the same compound?
**A.** 0.472

**Q.** What about the relative viability (NCI-H2228; first compound 0.01581 µM) of the same compound?
**A.** 0.275

**Q.** And the relative viability (NCI-H2228; first compound 0.05 µM)?
**A.** 0.197

**Q.** What about the relative viability (NCI-H2228; first compound 0.1581 µM) of the same compound?
**A.** 0.106

**Q.** And the relative viability (NCI-H2228; first compound 0.5 µM)?
**A.** 0.0947

**Q.** What about the relative viability (SK-LU-1; first compound 0.005 µM) of the same compound?
**A.** 0.509

**Q.** What about the relative viability (SK-LU-1; first compound 0.01581 µM) of the same compound?
**A.** 0.665

**Q.** What about the relative viability (SK-LU-1; first compound 0.05 µM) of the same compound?
**A.** 0.632

**Q.** And the relative viability (SK-LU-1; first compound 0.1581 µM)?
**A.** 0.479

**Q.** And the relative viability (SK-LU-1; first compound 0.5 µM)?
**A.** 0.422

From the supplement of paper PMC10307832
